Data on eight compounds can be found in US9072756B2, “Methods and compositions for increasing the efficacy of an agent that directly or indirectly affects a muscarinic receptor through administration of a pyrophosphate analog” (HealthPartners Research Foundation, priority 2000, dated 2015).

The subject of experiment [1] is muscarinic acetylcholine receptor (mAChR). Put plainly: Protection of mAChR from inactivation by the endogenous LMW inhibitor, [3H]QNB (antagonist) binding. On the set-up: species or system human. The following applies: for protection of the mAChR from inactivation by the LMW inhibitor (in words): FIGS. 4-7, 15, 17, 19; for EC50: read-out: concentration that provides 50% protection of the mAChR.

Experiment [2] addresses muscarinic acetylcholine receptor (mAChR). The following applies: read-out: concentration that provides 50% protection of the mAChR from damage by PbCl2, 3H-QNB binding, FIG. 20.
The target is the same in experiment [3]. Put plainly: Protection of mAChR from inactivation by heme and peroxide, [3H]QNB (antagonist) binding. On the set-up: species or system human. The following applies: 3H-QNB binding, FIG. 16.
Setting [4] is: LMW inhibitor, 3H-QNB binding, FIGS. 11, 13, 14.

Like-named read-outs stand apart in the source and are kept apart here.

Regarding `O=P(O)(O)OP(=O)(O)OP(=O)(O)O` [tripolyphosphate], the “protection of the mAChR from inactivation by the LMW inhibitor (in words)” value (from here on “protection … by the LMW inhibitor (in words)”) in experiment [1] (LMW inhibitor, 3H-QNB binding) was “protect the mAChR from inactivation”.

`O=c1c(O)c(-c2cc(O)c(O)c(O)c2)oc2cc(O)cc(O)c12` [myricetin]: the EC50 in experiment [1] (setting [4]) came to 400 nM.

`O=c1c(O)c(-c2ccc(O)c(O)c2)oc2cc(O)cc(O)c12` [quercetin]: the EC50 in experiment [1] (setting [4]) came out at 240 nM.

`O=P(O)(O)OP(=O)(O)O` [pyrophosphate]: the EC50 is approximately 57000 nM in experiment [2]; approximately 1000 nM in experiment [1] (inactivation by LMW inhibitor or heme and peroxide, loss of antagonist (3H-QNB) and agonist (3H-Oxotremorine M) binding, FIGS. 1-3, not specified further).

For `Nc1ncnc2c1ncn2[C@@H]1O[C@H](COP(=O)(O)OP(=O)(O)NP(=O)(O)O)[C@@H](O)[C@H]1O` [adenylylimidodiphosphate], the “protection … by the LMW inhibitor (in words)” value in experiment [1] (LMW inhibitor, 3H-QNB binding) is “protect the mAChR from inactivation”.

Take `CC(C)c1cc2c(c(O)c1O)[C@@]13CCCC(C)(C)[C@@H]1C[C@@H]2OC3=O` [carnosol]: the “protection of the mAChR from inactivation” value in experiment [1] (at 1 μM, LMW inhibitor, 3H-QNB binding, FIG. 12) was 100%.

Regarding catalase, in experiment [3], the “amount that provided 50% protection from inactivation by heme and peroxide” value came to 0.34 units/mL. Further, in experiment [1] (LMW inhibitor, 3H-QNB binding), the “protection … by the LMW inhibitor (in words)” value was “protected the mAChR from inactivation”.

With `C=CC1=C(C)/C(=C/C2=NC(=C\c3[nH]c(/C=C4\NC(=O)C(C)=C4C=C)c(C)c3CCC(=O)O)/C(CCC(=O)O)=C2C)NC1=O` [biliverdin], the EC50 in experiment [1] (setting [4]) was 3000 nM.
